Several values for one entry are separate records, joined by “and”; a condition that tells them apart may be missing. Equal values may be shown once. Non-standard residues stand in square brackets, D forms with d. Residues, ends and D or L forms follow the SMILES beside them. *: point of attachment. Desaminotyrosyl = O=C(CCc1ccc(O)cc1)*; NMeY = CN[C@@H](Cc1ccc(O)cc1)C(=O)O; Agmatine = N=C(N)NCCCCN*; Nle = CCCC[C@H](N)C(=O)O; Orn = NCCC[C@H](N)C(=O)O; dAbu = CC[C@@H](N)C(=O)O; Abu = CC[C@H](N)C(=O)O; Ava = NCCCCC(=O)O; GABA = NCCCC(=O)O
How the values were obtained:
GHRH receptor [1] = molecular target: T1, GHRH receptor (Homo sapiens, UniProt Q02643); assay: GHRH receptor binding, competition with 125I-labeled [His1,Nle27]hGHRH(1-32)NH2, human pituitary membrane homogenates (Table 6); parameters: Normal human pituitaries were purchased from the National Hormone and Peptide Program; tissue National Hormone and Peptide Program (A.F. Parlow, Harbor-UCLA Medical Center, Torrance, Calif.); host or cells: normal human pituitary, membrane fraction; details: GHRH(1-29) = 1, Table 6
T1 sequence (Q02643 23-423): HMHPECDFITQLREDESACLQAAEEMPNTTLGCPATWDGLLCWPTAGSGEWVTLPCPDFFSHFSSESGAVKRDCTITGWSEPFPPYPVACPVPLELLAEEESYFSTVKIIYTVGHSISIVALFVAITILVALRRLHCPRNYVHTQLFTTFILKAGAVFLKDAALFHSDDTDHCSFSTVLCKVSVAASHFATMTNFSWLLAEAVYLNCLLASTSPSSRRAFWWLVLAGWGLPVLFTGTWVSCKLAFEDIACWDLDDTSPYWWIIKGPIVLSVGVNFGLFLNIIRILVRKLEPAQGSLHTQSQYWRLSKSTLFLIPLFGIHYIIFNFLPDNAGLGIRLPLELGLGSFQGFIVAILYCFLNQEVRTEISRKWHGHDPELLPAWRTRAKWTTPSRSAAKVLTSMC
Excerpt: (§1) Normal human pituitaries were purchased from the National Hormone and Peptide Program (A.F. Parlow, Los Angeles, County Harbor-UCLA Medical Center, Torrance, Calif.).

GH release [2] = assay: In vivo endocrine activity, GH release after intravenous administration (Table 8); details: rat, i.v. injection
Description: In vivo tests on endocrine activity of new GHRH agonists (Intravenous administration). For in vivo tests based on intravenous administration, adult male Sprague-Dawley rats were anesthetized with pentobarbital (6 mg/100/g, b.w.), and GHRH agonists were injected 20 minutes after the injection of pentobarbital. Blood samples were taken from the jugular vein (pretreated level), immediately after hGHRH(1-29)NH2 injection (as a control) or after hGHRH analogs injection. Blood samples were taken from the jugular vein 5, 15 and 30 minutes after the injection. The blood samples were centrifuged, plasma was removed and the GH level was measured by ELISA.

GH release [3] = assay: In vivo endocrine activity, GH release after subcutaneous administration (Table 9); details: rat; for GH releasing potency relative to JI-38 (=1): subcutaneous (s.c.) injection
Description: Subcutaneous Administration. Adult male rats were used and anesthetized with pentobarbital (6 mg/100 g, b.w.), by i.p. injection. […] Blood samples were taken from the jugular vein 5, 15 and/or 30 minutes after the injection. The blood samples were centrifuged, plasma was removed and the GH level was measured byELISA. The results are summarized in terms of potency in Table 9.

GH release [4] = assay: GH releasing potency in vivo, subcutaneous administration (Example 14, Table 12); parameters: species or system rat; details: s.c.; for Serum GH level at selected time after injection (ng/ml), 0 min / Serum GH level at selected time after injection (ng/ml), 15 min / Serum GH level at selected time after injection (ng/ml), 30 min: male rats, dose 3 μg/kg, mean ± SEM
How it was run: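 Potency is expressed relative to GHRH(1-29)NH2 and JI-38 (each = 1), via equivalent GHRH(1-29)NH2 dose read from a standard curve. Peptides in 5% mannitol given i.v. or s.c. to anaesthetised male Sprague-Dawley rats (200-250 g); serum GH measured by ELISA at selected times.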

GHRH receptor [5] = molecular target: T1, GHRH receptor; assay: Receptor binding in vitro, 125I-labeled [His1,Nle27]-hGHRH(1-32)NH2, membrane receptors of human anterior pituitary cells (Table 14); details: for Relative affinity (Binding potency) compared to JI-38: JI-38 = 1; for Relative affinity (Binding potency) compared to hGHRH(1-29): hGHRH(1-29)NH2 = 1
Description: Normal human pituitary was purchased from the National Hormone and Peptide Program (UCLA Medical Center, Torrance, Calif.).

GHRH receptor [6] = molecular target: T1, GHRH receptor; assay: GHRH receptor binding, competition with 125I-labeled JV-1-42, human pituitary membrane homogenates (Table 7); parameters: Normal human pituitaries were purchased from the National Hormone and Peptide Program; tissue National Hormone and Peptide Program (A.F. Parlow, Harbor-UCLA Medical Center, Torrance, Calif.); host or cells: normal human pituitary, membrane fraction; details: JI-38 = 1, Table 7
Excerpt: as §1

GH release [7] = assay: GH releasing potency in vivo, intravenous administration (Example 14, Table 13); parameters: species or system rat; details: i.v.
Description: Male Sprague-Dawley rats, weighing 200-250 g, were purchased from Charles River Laboratory (Wilmington, Mass.) and used for experiments. All animal procedures were approved by the Veterans Affairs Animal Care and Use Committee and were conducted in accordance with additional institutional guidelines as well. Briefly, groups of 5-6 animals were used in each experiment. The rats were anesthetized with 50 mg/kg of sodium pentobarbital (Nembutal, Lundbeck Inc., Deerfield, Ill.). Twenty min after inducing anesthesia, GHRH(1-29)NH2, JI-38, or new analogs were injected into the animals intravenously (i.v.) or subcutaneously (s.c.). The peptides were dissolved in 0.01 M acetic acid to get 1 μg/μl stock solution, and then diluted with 5% mannitol. Control rats received 5% mannitol only. Blood samples were collected from the jugular vein at selected times and were used for serum preparation. Concentrations of GH in rat sera were determined by ELISA. The relative potencies of tested peptides were calculated using GHRH(1-29)NH2 and JI-38 for comparison, whose potency was defined as 1. The equivalent dosage of GHRH(1-29)NH2 to reach the same level of serum growth hormone release after injection of the specific tested peptide was determined from a GHRH(1-29)NH2 standard curve using Origin 6.0 software. […] Serum GH was determined using the rat Growth Hormone ELISA kit (ALPCO Diagnostics, Mill Valley, Calif.) according to the manufacturer's instruction. Absorbance at 405 nm was measured by a Victor 3 Multi-label Counter (Perkin-Elmer, Waltham, Md.).

SMILES | GH releasing potency in vivo relative to JI-38 (=1) (GH release [2]; 15 min after) | GH releasing potency in vivo relative to JI-38 (=1) (GH release [2]; 30 min after) | GH releasing potency relative to JI-38 (=1) (GH release [3]; 15 min after) | GH releasing potency relative to JI-38 (=1) (GH release [3]; 30 min after) | Serum GH level at selected time after injection (ng/ml), 0 min (GH release [4]) [ng/mL] | Serum GH level at selected time after injection (ng/ml), 15 min (GH release [4]) [ng/mL] | Serum GH level at selected time after injection (ng/ml), 30 min (GH release [4]) [ng/mL] | Relative potency compared to GHRH(1-29), 15 min (GH release [4]) | Relative potency compared to GHRH(1-29), 30 min (GH release [4]) | Relative affinity (Binding potency) compared to JI-38 (GHRH receptor [5]) | Relative affinity (Binding potency) compared to hGHRH(1-29) (GHRH receptor [5]) | Relative affinity (Binding potency) vs JI-38 (GHRH receptor [6]) | other results
CCCC[C@H](NC(=O)[C@@H](NC(=O)[C@H](CC(=O)O)NC(=O)[C@H](CCC(N)=O)NC(=O)[C@H](CC(C)C)NC(=O)[C@H](CC(C)C)NC(=O)[C@H](CCCN)NC(=O)[C@H](CCCNC(=N)N)NC(=O)[C@H](C)NC(=O)[C@H](CO)NC(=O)[C@H](CC(C)C)NC(=O)[C@H](CCC(N)=O)NC(=O)[C@H](CC)NC(=O)[C@H](CC(C)C)NC(=O)[C@@H](NC(=O)[C@H](CCCN)NC(=O)[C@H](CCCNC(=N)N)NC(=O)[C@H](Cc1ccc(O)cc1)NC(=O)[C@H](CO)NC(=O)[C@H](CC(N)=O)NC(=O)[C@@H](NC(=O)[C@H](Cc1ccccc1)NC(=O)[C@@H](NC(=O)[C@H](C)NC(=O)[C@H](CC(=O)O)NC(=O)[C@H](C)NC(=O)CCc1ccc(O)cc1)[C@@H](C)CC)[C@@H](C)O)C(C)C)[C@@H](C)CC)C(=O)N[C@@H](CC(=O)O)C(=O)NCCCCNC(=N)N [JI-34, reference compound] (Desaminotyrosyl-ADAIFTNSYR[Orn]VL[Abu]QLSAR[Orn]LLQDI[Nle]D-Agmatine; N-terminus and C-terminus assumed) | – | – | – | – | – | – | – | – | – | – | – | – | Relative affinity (Binding potency) vs GHRH (GHRH receptor [1]): 4.32
CCCC[C@H](NC(=O)[C@@H](NC(=O)[C@H](CC(=O)O)NC(=O)[C@H](CCC(N)=O)NC(=O)[C@H](CC(C)C)NC(=O)[C@H](CC(C)C)NC(=O)[C@H](CCCN)NC(=O)[C@H](CCCNC(=N)N)NC(=O)[C@H](C)NC(=O)[C@H](CO)NC(=O)[C@H](CC(C)C)NC(=O)[C@H](CCC(N)=O)NC(=O)[C@H](CC)NC(=O)[C@H](CC(C)C)NC(=O)[C@@H](NC(=O)[C@H](CCCN)NC(=O)[C@H](CCCNC(=N)N)NC(=O)[C@H](Cc1ccc(O)cc1)NC(=O)[C@H](CO)NC(=O)[C@H](CCC(N)=O)NC(=O)[C@@H](NC(=O)[C@H](Cc1ccccc1)NC(=O)[C@@H](NC(=O)[C@H](C)NC(=O)[C@H](CC(=O)O)NC(=O)[C@@H](C)NC(=O)[C@H](Cc1ccc(O)cc1)NC)[C@@H](C)CC)[C@@H](C)O)C(C)C)[C@@H](C)CC)C(=O)N[C@@H](CC(=O)O)C(=O)N[C@@H](CCCNC(=N)N)C(=O)NCCCCC(N)=O [Peptide P-22326, [N—Me-Tyr^1, D-Ala^2, Gln^8, Orn^12, Abu^15, Orn^21, Nle^27, Asp^28, Apa^30] hGHRH(1-30)NH2] (H-[NMeY][dA]DAIFTQSYR[Orn]VL[Abu]QLSAR[Orn]LLQDI[Nle]DR[Ava]-NH2) | 0.28 | 0.94 | 1.76 | 2.31 | 43.7 ± 6.4 | 309.2 ± 33.5 | 225.9 ± 19.8 | 92.7 | 303.4 | 2.80 | 7.81 | 6.12 | Stimulation of growth hormone levels after subcutaneous administration (in words) (GH release [3]; s.c.): stimulated greater growth hormone levels than hGHRH or JI-38; GH-releasing potency after s.c. administration (in words) (GH release [4]): significantly higher potencies at 30 minutes than at 15 minutes; Relative potency compared to JI-38, 15 min (GH release [4]; listed as MR-326): 1.5 and 1.47; Relative potency compared to JI-38, 30 min (GH release [4]; listed as MR-326): 2.7 and 2.71
CCCC[C@H](NC(=O)[C@@H](NC(=O)[C@H](CC(=O)O)NC(=O)[C@H](CCC(N)=O)NC(=O)[C@H](CC(C)C)NC(=O)[C@H](CC(C)C)NC(=O)[C@H](CCCN)NC(=O)[C@H](CCCNC(=N)N)NC(=O)[C@H](C)NC(=O)[C@H](CO)NC(=O)[C@H](CC(C)C)NC(=O)[C@H](CCC(N)=O)NC(=O)[C@H](CC)NC(=O)[C@H](CC(C)C)NC(=O)[C@@H](NC(=O)[C@H](CCCN)NC(=O)[C@H](CCCNC(=N)N)NC(=O)[C@H](Cc1ccc(O)cc1)NC(=O)[C@H](CO)NC(=O)[C@H](CC(N)=O)NC(=O)[C@@H](NC(=O)[C@H](Cc1ccccc1)NC(=O)[C@@H](NC(=O)[C@H](C)NC(=O)[C@H](CC(=O)O)NC(=O)[C@@H](CC)NC(=O)CCc1ccc(O)cc1)[C@@H](C)CC)[C@@H](C)O)C(C)C)[C@@H](C)CC)C(=O)N[C@@H](CO)C(=O)N[C@@H](CCCNC(=N)N)C(=O)NCCCC(N)=O [Peptide P-25504, [Dat^1, D-Abu^2, Orn^12, Abu^15, Orn^21, Nle^27, Gab^30]hGHRH(1-30)NH2] (Desaminotyrosyl-[dAbu]DAIFTNSYR[Orn]VL[Abu]QLSAR[Orn]LLQDI[Nle]SR[GABA]-NH2) | 1.65 | 1.37 | 0.78 | 0.98 | 25.4 ± 4.1 | 200.0 ± 10.7 | 130.0 ± 19.1 | 52.6 | 113.8 | 0.96 | 2.68 | 3.02 | GH releasing potency in vivo relative to JI-38 (=1) (GH release [2]; 5 min after): 1.66; Relative potency compared to JI-38, 15 min (GH release [4]): 0.83; Relative potency compared to JI-38, 30 min (GH release [4]): 1.02; Relative potency, 5 min (GH release [7]; 5 min, JI-38 = 1): 1.55; Relative potency, 15 min (GH release [7]; 15 min, JI-38 = 1): 1.50; Serum GH level at selected time after injection (ng/ml), 0 min (GH release [7]; dose 1 μg/kg, 0 min, mean ± SEM): 25.7 ± 6.3 ng/mL; Serum GH level at selected time after injection (ng/ml), 5 min (GH release [7]; dose 1 μg/kg, 5 min, mean ± SEM): 832 ± 214 ng/mL; Serum GH level at selected time after injection (ng/ml), 15 min (GH release [7]; dose 1 μg/kg, 15 min, mean ± SEM): 297 ± 45.6 ng/mL

Reference: patent US10555987B2, “GHRH agonists for the treatment of ischemic disorders” (UNIVERSITY OF MIAMI, priority 2012, dated 2020)
